The record followed here is patent US20120190687A1, “Pyrazinylpyrazoles” (Bayer CropScience Ag, priority 2009, published 2012).

Data set [1] can be described thus: logP by reversed-phase HPLC (EEC Directive 79/831 Annex V.A8). It counts as physicochemical. The note with it: * LC-MS, acidic range, pH 2.7, 0.1% aqueous formic acid / acetonitrile. From the text:
[table] The calibration is effected with unbranched alkan-2-ones (having 3 to 16 carbon atoms) with known log P values (log P values determined on the basis of the retention times by linear interpolation between two successive alkanones).

Data set [2] concerns Boophilus microplus. The experiment in a line: Boophilus microplus test (BOOPMI injection). It is filed as in vivo. The note with it: 20 μg/animal, injection into abdomen, after 7 days, laying of fertile eggs. The protocol:
Boophilus microplus Test (BOOPMI Injection) Solvent: Dimethyl Sulphoxide To prepare an appropriate active ingredient formulation, 10 mg of active ingredient are mixed with 0.5 ml of solvent and the concentrate is diluted with solvent to the desired concentration. The active ingredient solution is injected into the abdomen (Boophilus microplus), and the animals are transferred into dishes and stored in a climate-controlled room. The efficacy is assessed by laying of fertile eggs. After 7 days, the efficacy in % is determined. 100% means that none of the ticks has laid any fertile eggs.

Data set [3] relates to Lucilia cuprina larvae. The experiment in a line: Lucilia cuprina test (LUCICU). The note with it: 100 ppm, treated horse meat, after 2 days. It counts as in vivo. The protocol:
Lucilia cuprina Test (LUCICU) Solvent: Dimethyl Sulphoxide To prepare an appropriate active ingredient formulation, 10 mg of active ingredient are mixed with 0.5 ml of dimethyl sulphoxide and the concentrate is diluted with water to the desired concentration. Vessels containing horse meat treated with the active ingredient preparation of the desired concentration are populated with about 20 Lucilia cuprina larvae. After 2 days, the kill in % is determined. 100% means that all of the larvae have been killed; 0% means that none of the larvae have been killed.

In data set [4] the test system is Myzus persicae. The experiment in a line: Myzus test (MYZUPE spray treatment). It counts as in vivo. The note with it: 500 g/ha, Chinese cabbage discs, after 6 days. The protocol: Myzus test (MYZUPE Spray Treatment) Solvent: 78 parts by weight of acetone • • 1.5 parts by weight of dimethylformamide Emulsifier: 0.5 part by weight of alkylaryl polyglycol ether To prepare an appropriate active ingredient preparation, 1 part by weight of active ingredient is mixed with the stated amounts of solvent and emulsifier, and the concentrate is diluted with emulsifier-containing water to the desired concentration. Discs of Chinese cabbage (Brassica pekinensis) infested by all stages of the green peach aphid (Myzus persicae) are sprayed with an active ingredient preparation of the desired concentration. After 6 days, the efficacy in % is determined. 100% means that all of the aphids have been destroyed; 0% means that none of the aphids have been destroyed.

Data set [5] has as its system Boophilus microplus females of the SP-resistant Parkhurst strain. The experiment in a line: Boophilus microplus (dip). The note with it: 100 ppm, after 7 days, laying of fertile eggs. It is filed as in vivo. The procedure: Boophilus microplus (dip)
Test animals: adult engorged Boophilus microplus females of the SP-resistant Parkhurst strain
Solvent: Dimethyl Sulphoxide
10 mg of active ingredient are dissolved in 0.5 ml of dimethyl sulphoxide. For the purpose of preparing a suitable formulation, the active ingredient solution is diluted with water to the concentration desired in each case. This active ingredient preparation is pipetted into tubes. 8-10 ticks are transferred into a further tube with holes. The tube is immersed into the active ingredient formulation, and all ticks are completely wetted. After the liquid has run out, the ticks are transferred onto filter discs in plastic dishes and stored in a climate-controlled room. The activity is assessed after 7 days by laying of fertile eggs. Eggs whose fertility is not outwardly visible are stored in glass tubes in a climate-controlled cabinet until the larvae hatch. Efficacy of 100% means that none of the ticks has laid any fertile eggs.

Data set [6] has as its system Spodoptera frugiperda. The experiment in a line: Spodoptera frugiperda test (SPODFR spray treatment). It counts as in vivo. The note with it: 500 g/ha, maize leaf discs, after 7 days. The protocol:
Spodoptera frugiperda Test (SPODFR Spray Treatment) Solvent: 78.0 parts by weight of acetone • • 1.5 parts by weight of dimethylformamide Emulsifier: 0.5 part by weight of alkylaryl polyglycol ether To prepare an appropriate active ingredient preparation, 1 part by weight of active ingredient is mixed with the stated amounts of solvent and emulsifier, and the concentrate is diluted with emulsifier-containing water to the desired concentration. Discs of maize leaves (Zea mays) are sprayed with an active ingredient preparation of the desired concentration and, after drying, populated with caterpillars of the armyworm (Spodoptera frugiperda). After 7 days, the efficacy in % is determined. 100% means that all caterpillars have been killed; 0% means that none of the caterpillars have been killed.

Data set [7] has as its system Tetranychus urticae. The experiment in a line: Tetranychus test, OP-resistant (TETRUR spray treatment). It is filed as in vivo. The note with it: bean leaf discs, after 6 days. The protocol: Tetranychus Test, OP-resistant (TETRUR Spray Treatment)
Solvent: 78.0 parts by weight of acetone • • 1.5 parts by weight of dimethylformamide
Emulsifier: 0.5 part by weight of alkylaryl polyglycol ether
To prepare an appropriate active ingredient preparation, 1 part by weight of active ingredient is mixed with the stated amounts of solvent and emulsifier, and the concentrate is diluted with emulsifier-containing water to the desired concentration. Discs of bean leaves (Phaseolus vulgaris) infested by all stages of the red spider mite (Tetranychus urticae) are sprayed with an active ingredient preparation of the desired concentration. After 6 days, the efficacy in % is determined. 100% means that all spider mites have been killed; 0% means that none of the spider mites have been killed.

Data set [8] has as its system Phaedon cochleariae. The experiment in a line: Phaedon test (PHAECO spray treatment). The note with it: 500 g/ha, Chinese cabbage discs, after 7 days. It is filed as in vivo. The protocol:
Phaedon Test ([…] Spray Treatment) Solvent: 78.0 parts by weight of acetone • • 1.5 parts by weight of dimethylformamide Emulsifier: 0.5 part by weight of alkylaryl polyglycol ether To prepare an appropriate active ingredient preparation, 1 part by weight of active ingredient is mixed with the stated amounts of solvent and emulsifier, and the concentrate is diluted with emulsifier-containing water to the desired concentration. Discs of Chinese cabbage (Brassica pekinensis) are sprayed with an active ingredient preparation of the desired concentration and, after drying, populated with larvae of the mustard beetle (Phaedon cochleariae). After 7 days, the efficacy in % is determined. 100% means that all beetle larvae have been killed; 0% means that none of the beetle larvae have been killed.

In data set [9] the test system is Ctenocephalides felis. The experiment in a line: Ctenocephalides felis test (CTECFE). It counts as in vivo. The note with it: 100 ppm in citrated cow's blood, after 2 days. The procedure: Ctenocephalides felis Test ([…]) Solvent: 1 Part by Weight of Dimethyl Sulphoxide For the purpose of preparing an appropriate active ingredient formulation, 10 mg of active ingredient are mixed with 0.5 ml of dimethyl sulphoxide. A portion of the concentrate is diluted with citrated cow's blood and the desired concentration is established. About 20 unfed adult fleas (Ctenocephalides felis) are introduced into a chamber closed at the top and bottom with gauze. A metal cylinder, the bottom of which is closed with Parafilm, is placed onto the chamber. The cylinder contains the blood/active ingredient preparation, which can be imbibed by the fleas through the Parafilm membrane. After 2 days, the kill in % is determined. 100% means that all fleas have been killed; 0% means that none of the fleas have been killed.

Data set [10] concerns Musca domestica. The experiment in a line: Musca domestica test. It counts as in vivo. The note with it: after 2 days. The procedure:
Musca domestica Test Solvent: Dimethyl Sulphoxide To prepare an appropriate active ingredient formulation, 10 mg of active ingredient are mixed with 0.5 ml of dimethyl sulphoxide and the concentrate is diluted with water to the desired concentration. Vessels containing a sponge treated with the active ingredient preparation of the desired concentration are populated with adult Musca domestica. After 2 days, the kill in % is determined. 100% means that all of the flies have been killed; 0% means that none of the flies have been killed.

As for `C=Cc1nn(-c2nccnc2OC)c(N)c1-c1cc(Cl)cc(Cl)c1` [Ex. 8], the “log P” value in data set [1] was 3.51*. In addition, the values for the efficacy in data set [2], in [4] and in data set [5] were 100%, 100% and 90%, respectively. Also, in [3], the “efficacy (kill)” value was 100%.

Regarding `COc1nccnc1-n1nc(C(F)(F)C(F)(F)F)c(-c2cc(Cl)cc(C(F)(F)F)c2)c1N` [Ex. 15], the “log P” value in data set [1] is 4.58*. The efficacy in data set [6], in [2], in [7] (500 g/ha), in [4], in [8] and in [5] was 100% each time. Also, the “efficacy (kill)” value in data set [3] is 100%; in data set [9], 95%; in [10] (100 ppm) it was 95%.

As to `COc1nccnc1-n1nc(C(F)(F)Cl)c(-c2cc(Cl)cc(C(F)(F)F)c2)c1N` [Ex. 17], the “log P” value in [1] was 4.24*. Also, the efficacy in [6], in data set [2], in [7] (500 g/ha), in data set [4], in [8] and in data set [5] was 100% each time. For the same compound, the “efficacy (kill)” value in data set [3], in [9] and in data set [10] (100 ppm) was 100% each time.

As to `COc1nccnc1-n1nc(C(F)(F)F)c(-c2ccc(Cl)c(C(F)(F)F)c2)c1N` [Ex. 18], in [1], the “log P” value is on record as 3.94*. In addition, the efficacy in [6] was found to be 83%; in data set [2], 100%; in data set [7] (500 g/ha), 100%; in data set [4], 90%; in data set [8], 100%; in data set [5] it was 100%. In addition, the “efficacy (kill)” value in data set [3] turned out to be 100%.

Turning to `COc1nccnc1-n1nc(C(C)(F)F)c(-c2ccc(Cl)c(C(F)(F)F)c2)c1N` [Ex. 20], the “log P” value in [1] is recorded as 3.74*. Further, the efficacy in data set [6], in [2], in [7] (500 g/ha), in data set [4], in data set [8] and in [5] was 100% throughout. For the same compound, the “efficacy (kill)” value in data set [3] is recorded as 100%.

For the compound `COc1nccnc1-n1nc(C(F)(F)C(F)(F)OC)c(-c2cc(Cl)cc(C(F)(F)F)c2)c1N` [Ex. 47], the “log P” value in data set [1] is on record as 3.98*. The efficacy in data set [6] is 100%; in data set [2] it was 100%; in data set [7] (500 g/ha) it was 100%; in data set [4], 80%; in data set [8], 100%; in data set [5], 100%. For the same compound, the “efficacy (kill)” value in data set [3] was 100%; in [9], 100%; in data set [10] (100 ppm) it was 80%.

For the compound `COc1nccnc1-n1nc(C(F)(F)F)c(-c2cc(Br)c3c(c2)OCCO3)c1N` [Ex. 132], the “log P” value in data set [1] was 3.09*. For the same compound, the efficacy in [6] turned out to be 100%; in data set [2], 100%; in data set [7] (500 g/ha) it was 80%; in [8] it was 100%; in [5] it was 100%. Also, the figures for the “efficacy (kill)” value in data set [3], in data set [9] and in [10] (100 ppm) were 100%, 100% and 80%, respectively.

Consider `COc1nccnc1-n1nc(C(F)(F)F)c(-c2cc(Cl)c3c(c2)OCCO3)c1N` [Ex. 133], for which, in data set [1], the “log P” value was 3.02*. The efficacy in [6] is reported as 100%; in data set [2] it was 100%; in [7] (100 g/ha), 90%; in [8] it was 100%; in [5], 95%. The entries for the “efficacy (kill)” value in [3], in data set [9] and in data set [10] (20 ppm) were 100%, 100% and 80%, respectively.

Regarding `COc1cc(-c2c(C(F)(F)F)nn(-c3nccnc3OC)c2N)cc(C(F)(F)F)c1` [compound 26, 1-(3-methoxypyrazin-2-yl)-4-[3-methoxy-5-(trifluoromethyl)phenyl]-3-(trifluoromethyl)-1H-pyrazol-5-amine], the chromatographic logP in data set [1] (reversed-phase HPLC column, read-out: log P) stood at 3.63. Besides, the efficacy worked out at 83% in data set [6]; 100% in data set [2]; 100% in data set [7] (500 g/ha); 100% in [8]; 90% in [5]. The figures for the “efficacy (kill)” value in data set [3] and in data set [9] were 100% and 95%, respectively.
